Entries after “also recorded” stand apart in the source; their conditions may differ.
Legend:
Assay type in all cases: cell-based
[1] = test system: HT1080 p21-9 cells co-cultured with C8 mouse fibroblast line; assay: Paracrine antiapoptotic activity of p21-expressing HT1080 p21-9 cells, survival of C8 cells in low-serum media; conditions: p21 induction for three days in presence of compound; C8 survival after 3 days in 0.5% serum, luciferase assay
Excerpt: We have also tested if SNX2-class compounds can inhibit paracrine tumor-promoting activities of CDKI-expressing cells. In the assay shown in FIG. 12, HT1080 p21-9 cells were either untreated or treated with p21-inducing IPTG, alone or in the presence of three SNX2-class compounds (SNX2, SNX14 and SNX38). After three days, cells were trypsinized, washed to remove residual compounds, and 3×10^3 cell aliquots of each sample were mixed (in 6 replicates) with 10^4 cell aliquots of C8 mouse fibroblast line, which is highly susceptible to apoptosis in low-serum media. (To detect C8 cells in co-culture, we had transduced them with a vector expressing firefly luciferase.) The next day after plating the mixtures in 96-well plates (in 10% serum and in the absence of IPTG or compounds), cells were exposed to low-serum (0.5%) media, and the relative number of surviving C8 cells was measured after 3 days by the luciferase assay.

[2] = test system: CDKI-responsive promoter of cellular NK4 gene; assay: NK4-luciferase reporter in HT1080 p21-9 cells, prevention and reversal of p21-induced transcription; conditions: for induction of NK4-luciferase by p21 (reversal): compound added after two days of IPTG treatment; for induction of NK4-luciferase by p21: compound added simultaneously with IPTG
Protocol: The compounds show pronounced dose-dependent inhibition of transcription by p21, but they have only a marginal effect on the promoter function when p21 is not induced. […] In this experiment, HT1080 p21-9 cells that express firefly luciferase from a CDKI-responsive promoter of cellular NK4 gene were cultured with IPTG for two days, which is sufficient for near-maximal induction of NK4.

[3] = biological target: T1, NFκB (p50 or p65 subunits) (Homo sapiens, UniProt P19838+Q04206); assay: TransAM NFκB p65 / p50 Chemi transcription factor assay (oligonucleotide binding); conditions: for TNFα-induced NFκB activity: TNFα-treated cells; for basal NFκB activity: control cells
T1 construct: endogenous in cells
Excerpt: The left set of bars represents cells treated with carrier control, the middle set represents cells treated with SNX2, and the right set represents cells treated with a known inhibitor of NFκB binding (TPCK).
We also tested if these compounds could act as the inhibitors of NFκB, by measuring cellular levels of p50 or p65 subunits binding oligonucleotides containing NFκB consensus binding site, using ACTIVE MOTIF TransAM™ NFκB p65 Chemi and NFκB p50 Chemi Transcription Factor Assay Kits.

[4] = test system: normal human WI-38 fibroblasts; assay: Doxorubicin-induced senescent phenotype (SA-β-gal) in WI-38 fibroblasts; conditions: senescence induced by 200 nM doxorubicin
Protocol: We have correlated the ability of SNX2-class compounds to inhibit the induction of CDKI-responsive genes with their effect on the senescent phenotype, induced in normal human WI-38 fibroblasts by treatment with 200 nM doxorubicin.

[5] = test system: HT1080 p21-9 cells; assay: FACS analysis of DNA content (cell cycle distribution) in HT1080 p21-9 cells; conditions: 18 hrs; for increase in the G1 fraction relative to cells treated with IPTG alone: 20 μM compound added simultaneously with 50 μM IPTG; for decrease in the G2 fraction of IPTG-treated cells: 20 μM compound with 50 μM IPTG; for increase in the G1 fraction: 20 μM compound, in the absence of IPTG
Protocol: We have analyzed the effect of SNX2-class compounds on cell cycle distribution of p21-arrested HT1080 p21-9 cells. Upon p21 induction, these cells are known to arrest both in G1 and in G2 (Chang et al., Oncogene 19, 2165-2170), which is illustrated in FIG. 9 by a reduction in the S-phase but not in the G1 or G2 fractions of cells treated with 50 μM IPTG for 18 hrs, relative to IPTG-untreated cells (as determined by FACS analysis of DNA content in DAPI-stained cells). 20 μM concentrations of SNX2 or SNX14 produce a small increase in the G1 fraction in the absence of IPTG (4% increase with SNX2 and 5% increase with SNX14) (FIG. 9). However, when SNX2 and SNX14 were added simultaneously with IPTG, they produced a much greater increase in the G1 fraction relative to cells treated with IPTG alone (19% increase with SNX2 and 22% increase with SNX14) (FIG. 9).

[6] = test system: HT1080 p27-2 cells; assay: FACS cell cycle analysis in HT1080 p27-2 cells with IPTG-inducible p27; conditions: 20 μM compound, 24-hour treatment
Protocol: IPTG induces dose-dependent increase in the G1 fraction with a corresponding decrease in S and G2/M. The doses of IPTG used in this experiment induce G1 arrest at levels that are lower than the maximal levels that are produced by 50-100 μM IPTG, where >80% of cells are in G1.

T1 sequence (P19838 1-433 limits assumed): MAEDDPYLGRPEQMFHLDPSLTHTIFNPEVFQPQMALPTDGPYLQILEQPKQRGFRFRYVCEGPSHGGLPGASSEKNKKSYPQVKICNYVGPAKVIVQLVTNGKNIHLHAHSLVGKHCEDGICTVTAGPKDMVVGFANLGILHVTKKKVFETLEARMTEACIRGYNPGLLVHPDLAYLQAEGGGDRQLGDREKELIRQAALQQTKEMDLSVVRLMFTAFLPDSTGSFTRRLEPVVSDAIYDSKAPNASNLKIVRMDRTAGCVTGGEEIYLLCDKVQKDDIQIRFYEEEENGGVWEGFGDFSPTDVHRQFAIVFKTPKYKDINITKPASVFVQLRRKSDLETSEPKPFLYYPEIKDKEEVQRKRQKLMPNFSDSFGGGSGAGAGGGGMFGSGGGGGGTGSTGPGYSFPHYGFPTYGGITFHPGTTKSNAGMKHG
T1 sequence (Q04206 whole entry): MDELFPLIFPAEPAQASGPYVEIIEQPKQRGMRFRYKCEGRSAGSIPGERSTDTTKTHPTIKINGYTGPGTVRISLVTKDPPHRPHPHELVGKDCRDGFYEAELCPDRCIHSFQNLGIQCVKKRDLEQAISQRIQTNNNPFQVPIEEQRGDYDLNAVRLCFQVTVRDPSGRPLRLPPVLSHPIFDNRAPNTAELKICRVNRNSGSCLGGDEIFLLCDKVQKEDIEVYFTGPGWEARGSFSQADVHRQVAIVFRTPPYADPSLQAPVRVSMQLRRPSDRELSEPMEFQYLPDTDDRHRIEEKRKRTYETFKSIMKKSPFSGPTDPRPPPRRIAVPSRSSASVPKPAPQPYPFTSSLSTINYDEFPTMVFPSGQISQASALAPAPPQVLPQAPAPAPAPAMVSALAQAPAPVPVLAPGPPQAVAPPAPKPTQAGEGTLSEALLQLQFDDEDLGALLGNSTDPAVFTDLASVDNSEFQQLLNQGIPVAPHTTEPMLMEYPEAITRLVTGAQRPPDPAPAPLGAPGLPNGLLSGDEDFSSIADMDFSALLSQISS

Compound | p21-induced increase of C8 cell survival (paracrine antiapoptotic activity) [1] | induction of NK4-luciferase by p21 (reversal) [2] | induction of NK4-luciferase by p21 [2] | TNFα-induced NFκB activity [3] | basal NFκB activity [3] | expression of senescence marker SA-β-gal [4] | morphological changes associated with cell senescence [4] | increase in the G1 fraction relative to cells treated with IPTG alone [5] [%] | decrease in the G2 fraction of IPTG-treated cells [5] [%] | increase in the G1 fraction [5] [%] | binding of NFκB proteins p50 or p65 to double-stranded DNA oligonucleotide comprising NFκB binding site ([3]; control or TNFα-treated cells) | effect on sub-maximal G1 arrest induced by IPTG (p27) [6]
COCCCNc1ncnc2ccc(I)cc12 [SNX38] | significantly diminished | reverses; also recorded: strongly decreased | prevents; also recorded: strongly decreased | – | – | – | – | – | – | – | – | –
Cc1ccc(S(=O)(=O)N[C@@H](Cc2ccccc2)C(=O)CCl)cc1 [TPCK, reference compound] | – | – | – | completely blocks | completely blocks | – | – | – | – | – | – | –
CCCNc1ncnc2ccc(Br)cc12 [SNX2] | significantly diminished | – | – | no significant effect | no significant effect | block this phenotype | diminish | 19 | 6 | 4 | does not inhibit | –
CC(C)Nc1ncnc2ccc(I)cc12 [SNX14] | significantly diminished; also recorded: strongest effect | – | – | – | – | block this phenotype | diminish | 22 | 7 | 5 | – | strongly augmented
Cc1c(Cl)cccc1NC(=O)CCN1CCN(Cc2ccccc2)CC1 [SNX63] | – | not two days later | inhibited transcription | – | – | – | – | – | – | – | – | –
